The structures appear in SMILES notation. “And” between values parts separate entries of the source, which are not always exact repeats. Equal entries are not always repeated.

In assay [1] the target is T1, Human Collagenase (MMP-1) (Homo sapiens, UniProt P03956).
T1 sequence (P03956 100-469): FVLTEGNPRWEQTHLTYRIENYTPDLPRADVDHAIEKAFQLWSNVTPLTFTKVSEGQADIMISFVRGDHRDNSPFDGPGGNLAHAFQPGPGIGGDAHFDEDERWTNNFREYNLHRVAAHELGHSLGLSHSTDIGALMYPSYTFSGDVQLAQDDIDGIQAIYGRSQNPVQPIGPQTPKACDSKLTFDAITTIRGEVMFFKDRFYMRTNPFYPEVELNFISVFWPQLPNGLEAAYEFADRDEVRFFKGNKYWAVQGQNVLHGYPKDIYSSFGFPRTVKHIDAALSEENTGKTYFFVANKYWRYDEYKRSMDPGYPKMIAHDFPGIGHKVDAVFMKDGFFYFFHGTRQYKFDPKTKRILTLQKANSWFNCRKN
Briefly: Inhibition of Human Collagenase (MMP-1), fluorogenic peptide substrate. It counts as biochemical. Particulars: human recombinant collagenase activated with trypsin; each table line is a separate determination. The protocol: Inhibition of Human Collagenase (MMP-1)
Human recombinant collagenase is activated with trypsin using the following ratio: […] of collagenase. The trypsin and collagenase are incubated at room temperature for 10 minutes then a five fold excess (50 mg/10 mg trypsin) of soybean trypsin inhibitor is added.
10 mM stock solutions of inhibitors are made up in dimethyl sulfoxide and then diluted using the following Scheme: 10 mM ―> 120 µM ―> 12 µM ―> 1.2 µM ―> 0.12 µM
Twenty-five microliters of each concentration is then added in triplicate to appropriate wells of a 96 well microfluor plate. The final concentration of inhibitor will be a 1:4 dilution after addition of enzyme and substrate. Positive controls (enzyme, no inhibitor) are set up in wells D1-D6 and blanks (no enzyme, no inhibitors) are set in wells D7-D12.
Collagenase is diluted to 400 ng/ml and […] is then added to appropriate wells of the microfluor plate. Final concentration of collagenase in the assay is 100 ng/ml.
Substrate (DNP-Pro-Cha-Gly-Cys(Me)-His-Ala-Lys(NMA)-NH2) is made as a 5 mM stock in dimethyl sulfoxide and then diluted to […] in assay buffer. The assay is initiated by the addition of […] substrate per well of the microfluor plate to give a final concentration of […].
Fluorescence readings (360 nm excitation. 460 nm emission) were taken at time 0 and then at 20 minute intervals. The assay is conducted at room temperature with a typical assay time of 3 hours.
Fluorescence vs time is then plotted for both the blank and collagenase containing samples (data from triplicate determinations is averaged). […] The zero time is used as a blank for each compound at each concentration and these values are subtracted from the 120 minute data. Data is plotted as inhibitor concentration vs % control (inhibitor fluorescence divided by fluorescence of collagenase alone x 100). IC50's are determined from the concentration of inhibitor that gives a signal that is 50% of the control. […]

The target in the next assay is Human recombinant MMP-13 (Homo sapiens, UniProt P45452). Briefly: Inhibition of MMP-13, fluorogenic peptide substrate. The class given is biochemical. The following applies: human recombinant MMP-13 activated with APMA; each table line is a separate determination. The protocol:
Human recombinant MMP-13 is activated with 2mM APMA (p-aminophenyl mercuric acetate) for 1.5 hours, at 37°C and is diluted to […] in assay buffer (50 mM Tris, pH 7.5, 200 mM sodium chloride, 5mM calcium chloride, […], 0.02% brij). Twenty-five microliters of diluted enzyme is added per well of a 96 well microfluor plate. The enzyme is then diluted in a 1:4 ratio in the assay by the addition of inhibitor and substrate to give a final concentration in the assay of […].
10 mM stock solutions of inhibitors are made up in dimethyl sulfoxide and then diluted in assay buffer as per the inhibitor dilution scheme for inhibition of human collagenase (MMP-1): Twenty-five microliters of each concentration is added in triplicate to the microfluor plate. The final concentrations in the assay are 30 mM, 3mM, 0.3 mM, and 0.03 mM.
Substrate (Dnp-Pro-Cha-Gly-Cys(Me)-His-Ala-Lys(NMA)-NH2) is prepared as for inhibition of human collagenase (MMP-1) and […] is added to each well to give a final assay concentration of […]. Fluorescence readings (360 nm excitation; 450 emission) are taken at time 0 and every 5 minutes for 1 hour.
Positive controls consist of enzyme and substrate with no inhibitor and blanks consist of substrate only.
IC50's are determined as per inhibition of human collagenase (MMP-1). If IC50's are reported to be less than […], inhibitors are then assayed at final concentrations of 0.3 mM, 0.03 mM, 0.003 mM and 0.0003 mM.

Consider `O=C(O)CCN(C1(C(=O)NO)CCCC1)S(=O)(=O)c1ccc(Oc2ccc(F)cc2)cc1` [Example 2, 3-[[4-(4-FLUOROPHENOXY)BENZENESULFONYL]-(1-HYDROXYCARBAMOYLCYCLOPENTYL) AMINO]PROPIONIC ACID], for which the IC50 (commonly the concentration that gives 50% inhibition) was 360 nM and 200 nM in assay [1]; 1.2 nM and 0.6 nM on Human recombinant MMP-13.

Turning to `CCOC(=O)CCN(C(C)(C)C(=O)NO)S(=O)(=O)c1ccc(Oc2ccc(F)cc2)cc1` [Example 3, 3-[[4-(4-FLUOROPHENOXY)BENZENESULFONYL]-(1-HYDROXYCARBAMOYL-1-METHYLETHYL)AMINO]PROPIONIC ACID ETHYL ESTER], the IC50 is 1200 nM and 1800 nM in assay [1]; 1.6 nM and 2.3 nM on Human recombinant MMP-13.

Regarding `CC(C)(C(=O)NO)N(CCC(=O)O)S(=O)(=O)c1ccc(Oc2ccc(F)cc2)cc1` [Example 4, 3-[[4-(4-FLUOROPHENOXY)BENZENESULFONYL)-(1-HYDROXYCARBAMOYL-1-METHYLETHYL)AMINO]PROPIONIC ACID], the IC50 is 3500 nM and 2000 nM and 4800 nM in assay [1]; 5.7 nM and 2.3 nM and 8 nM on Human recombinant MMP-13.
